{"source": "patent US9970938B2", "about": "“Use of BUBR1 as a biomarker of drug response to furazanobenzimidazoles” (Basilea Pharmaceutica AG, priority 2011, dated 2018)", "assay_type_in_all_cases": "cell-based, human", "key": {"[1]": {"tested_on": "Panc1 cells", "experiment": "Crystal Violet assay of siRNA-treated cells", "settings": "BUBR1 siRNA pool, 30 nM, 48 hours", "protocol": "(§1) For siRNA experiments to assess effects on BUBR1 expression levels by immunoblotting and effects on tumour cell proliferation and viability using the YO-PRO assay (FIGS. 7, 9,10 and 11), and Crystal Violet Assay (FIGS. 12 and 13), cells were seeded in 6 well plates at an appropriate density: HeLa (cervical cancer cells; ATCC reference CCL-2) 2.5E+04 (for YO-PRO) or 4.0E+04 (for Crystal Violet) cells per well, H460 (NSCLC cells; ATCC reference HTB-177) 5.0E+04 cells per well, MCF-7 (breast carcinoma cells; ATCC reference HTB-22) 2.4E+05 cells per well, Panc1 (pancreatic cancer cells, ATCC reference CRL-1469) and HCT116 (colon cancer cells, ATCC reference CCI-247) 8E+04 cells per well, and were cultured at 37° C. and 5% CO2 in RPMI-1640 or DMEM containing 10% FCS (complete medium). Cells were transfected the following day with a mixture of four BUBR1 siRNAs (ON-Target-plus Smartpool L-004101, Dharmacon, see sequence information below), the four individual BUBR1 siRNAs (ON-Target-plus Set of four upgrade LU-004101) or non-targeting control siRNAs (ON-Target-plus non-targeting pool D001810, Dharmacon), using Hiperfect (Qiagen) for H460, Panc1 and HCT116 or Lipofectamine2000 (Invitrogen) for HeLa and MCF-7 according to manufacturer's instructions. The final concentration of siRNA was 10 nM (H460) or 20-30 nM (HeLa) or 20 nM (MCF-7, Panc1, HCT116). Cells were maintained at 37° C. and 5% CO2 for 24 hours before compound treatment for 48 hours, followed by YO-PRO analysis, Crystal Violet Assay or extraction for immunoblot assay. ON-Target-plus siRNAs are dual-strand siRNAs, chemically modified to improve specificity for the desired target.\n(§2) Cells were incubated for 48 hours with DMSO or BAL27862 diluted in complete medium (final concentration DMSO 0.5%). After medium was removed, cells were fixed and stained by adding 1 ml Crystal Violet Staining (0.2% Crystal Violet in 50% Methanol) per well. Plates were incubated for 1 hour at room temperature. Subsequently the stain was decanted and plates were washed 4 times with double-distilled water. Plates were air-dried for several hours. Stain was dissolved by adding 2 ml buffer (0.1 M Tris pH 7.5, 0.2% SDS, 20% Ethanol) per well and shaking the plates. Absorbance at 590 nm was measured using a SpectraMax M2^e plate reader (Molecular Devices). In order to subtract starting cell numbers, a control plate was fixed and stained on the same day the compound was added. Final results were calculated by subtracting the starting cell absorbance from that of control (DMSO) or compound treated cells. Values lower than zero indicate cell death."}, "[2]": {"tested_on": "HeLa cells", "experiment": "Crystal Violet assay of siRNA-treated cells", "settings": "48 hours", "protocol": "as §1, §2"}, "[3]": {"tested_on": "HCT116 cells", "experiment": "Crystal Violet assay of siRNA-treated cells", "settings": "BUBR1 siRNA pool, 50 nM, 48 hours", "protocol": "as §1, §2"}, "[4]": {"tested_on": "HeLa cells", "experiment": "BUBR1 siRNA pool, tumour cell phenotype and cell number by immunostaining", "settings": "50 nM BAL27862, 24 hours, 48 hours after siRNA", "protocol": "In order to show BUBR1 is a biomarker of resistance, siRNA experiments were performed. For siRNA experiments to assess effects on tumour cell phenotype and numbers (FIG. 8), HeLa (ATCC reference CCL-2) cervical cancer cells were cultured at 37° C. and 5% CO2 in DMEM with 10% FCS (Invitrogen). 1000 HeLa cells per well were seeded into black 384 well multititer plates (BD Falcon). Cells were reversely transfected with 20 nM non-targeting control siRNA (ON-Target-plus non-targeting pool D001810, Dharmacon) or a mixture of four BUBR1 siRNAs (ON-Target-plus Smartpool L-004101, Dharmacon, see sequence information below) using Dharmafect1 (Dharmacon, Thermo) transfection reagent. 48 hours after cell seeding and siRNA transfection, one replicate pair of siRNA clones was treated with BAL27862 (50 nM, 0.1% DMSO) and another replicate pair with control solution (0.1% DMSO) for 24 hours. […] Based on the immunostaining, the morphology of treated cells was analysed using a multiparametric approach (BD Pathway 855 fluorescence microscope; 20× objective) with appropriate software. The number of cells per well was also calculated based on Hoe33342 staining of nuclei. […]"}, "[5]": {"tested_on": "HeLa cells", "experiment": "YO-PRO assay of siRNA-treated cells", "settings": "BUBR1 siRNA pool, 48 hours treatment", "protocol": "For siRNA experiments to assess effects on BUBR1 expression levels by immunoblotting and effects on tumour cell proliferation and viability using the YO-PRO assay (FIGS. 7, 9,10 and 11), and Crystal Violet Assay (FIGS. 12 and 13), cells were seeded in 6 well plates at an appropriate density: HeLa (cervical cancer cells; ATCC reference CCL-2) 2.5E+04 (for YO-PRO) or 4.0E+04 (for Crystal Violet) cells per well, H460 (NSCLC cells; ATCC reference HTB-177) 5.0E+04 cells per well, MCF-7 (breast carcinoma cells; ATCC reference HTB-22) 2.4E+05 cells per well, Panc1 (pancreatic cancer cells, ATCC reference CRL-1469) and HCT116 (colon cancer cells, ATCC reference CCI-247) 8E+04 cells per well, and were cultured at 37° C. and 5% CO2 in RPMI-1640 or DMEM containing 10% FCS (complete medium). […]\n12.5 μl YO-PRO®-1 iodide (491/509)(Invitrogen/Molecular Probes, # Y-3603; 1 mM in DMSO) were added to 1 ml 5-times concentrated YO-PRO buffer (100 mM Na-citrate, pH 4.0; 134 mM NaCl) to produce the YO-PRO Mix. […] The uptake of YO-PRO dye into cells was assessed by using a SpectraMax M2^e plate reader (Molecular Devices) using 485 nm excitation and 538 nm emission at a cutoff of 530 nm. […] Fluorescent read-out was performed in a SpectraMax M2^e plate reader (Molecular Devices) using 485 nm excitation and 538 nm emission at a cut off of 530 nm. […]"}}, "data": [{"smiles": "N#CCCNc1nonc1-c1nc2ccccc2n1CC(=O)c1ccc(N)cc1", "note": "[BAL27862, 3-(4-{1-[2-(4-Amino-phenyl)-2-oxo-ethyl]-1H-benzoimidazol-2-yl}-furazan-3-ylamino)-propionitrile]", "values": [{"measurement": "cellular proliferation with reduced BUBR1 expression", "setting": "[1]", "result": "same effects were again observed"}, {"measurement": "cellular proliferation with reduced BUBR1 expression", "setting": "[2]; BUBR1 siRNA pool, 50 nM", "result": "same effects were again observed"}, {"measurement": "effect on cellular proliferation after individual BUBR1 siRNAs", "setting": "[2]; siRNA #1-4, 50 nM", "result": "decreased the effect of BAL27862 on cellular proliferation"}, {"measurement": "cellular proliferation with reduced BUBR1 expression", "setting": "[3]", "result": "same effects were again observed"}, {"measurement": "HeLa cell number and fraction of cells with a normal phenotype after pooled BUBR1 siRNA", "setting": "[4]", "result": "BUBR1 was required for optimal effects"}, {"measurement": "antiproliferative effect with reduced BUBR1 expression", "setting": "[5]", "result": "dramatically reduced"}, {"measurement": "tumour cell death with reduced BUBR1 expression", "setting": "[5]", "result": "no increase in tumour cell death observed"}]}]}
